Results published in PMC11831560, “Development of the Pyrido[2,3-d]pyrimidin-7(8H)-one Scaffold toward Potent and Selective NUAK1 Inhibitors” (ACS Medicinal Chemistry Letters, 2025).

Experiments:
Test in all cases: Kinase panel radiometric filter binding (33P-ATP)
Format in all cases: biochemical
Design in all cases: dose or concentration left out as unconfirmed
[1] = target: ASK1 (Homo sapiens, UniProt Q99683)
Procedure, shortened: (§1)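 140-kinase general panel; radiometric filter binding, 33P-ATP; test compound 1 µM; % activity remaining ± s.d.; pIC50 determined only if <20% activity.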

[2] = target: BRSK1 (Homo sapiens, UniProt Q8TDC3)
Procedure, shortened: as §1

[3] = target: CDK2-Cyclin A (Homo sapiens, UniProt P24941)
Procedure, shortened: as §1

[4] = target: CDK9-Cyclin T1 (Homo sapiens, UniProt P50750)
Procedure, shortened: as §1

[5] = target: CHK2 (Homo sapiens, UniProt O96017)
Procedure, shortened: as §1

[6] = target: CK1γ2 (Homo sapiens, UniProt P78368)
Procedure, shortened: as §1

[7] = target: CK2 (Homo sapiens, UniProt P68400)
CK2, sequence (P68400 whole entry): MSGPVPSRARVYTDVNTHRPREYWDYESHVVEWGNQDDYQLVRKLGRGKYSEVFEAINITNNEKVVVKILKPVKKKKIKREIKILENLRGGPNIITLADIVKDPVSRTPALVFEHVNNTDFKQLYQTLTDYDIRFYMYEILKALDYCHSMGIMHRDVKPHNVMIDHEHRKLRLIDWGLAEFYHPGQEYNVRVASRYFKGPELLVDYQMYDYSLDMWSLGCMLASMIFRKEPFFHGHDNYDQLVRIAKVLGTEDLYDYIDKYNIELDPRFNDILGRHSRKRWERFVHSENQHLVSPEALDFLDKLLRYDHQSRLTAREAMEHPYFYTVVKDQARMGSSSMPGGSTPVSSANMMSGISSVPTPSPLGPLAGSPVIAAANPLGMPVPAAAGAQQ
Procedure, shortened: as §1

[8] = target: CSK (Homo sapiens, UniProt P41240)
Procedure, shortened: as §1

[9] = target: DAPK1 (Homo sapiens, UniProt P53355)
Procedure, shortened: as §1

[10] = target: EPH-A2 (Homo sapiens, UniProt P29317)
Procedure, shortened: as §1

[11] = target: EPH-B2 (Homo sapiens, UniProt P29323)
Procedure, shortened: as §1

[12] = target: ERK2 (Homo sapiens, UniProt P28482)
Procedure, shortened: as §1

[13] = target: ERK5 (Homo sapiens, UniProt Q13164)
Procedure, shortened: as §1

[14] = target: HER4 (Homo sapiens, UniProt Q15303)
Procedure, shortened: as §1

[15] = target: HIPK2 (Homo sapiens, UniProt Q9H2X6)
Procedure, shortened: as §1

[16] = target: JNK3 (Homo sapiens, UniProt P53779)
Procedure, shortened: as §1

[17] = target: LKB1 (Homo sapiens, UniProt Q15831)
LKB1, sequence (Q15831 whole entry): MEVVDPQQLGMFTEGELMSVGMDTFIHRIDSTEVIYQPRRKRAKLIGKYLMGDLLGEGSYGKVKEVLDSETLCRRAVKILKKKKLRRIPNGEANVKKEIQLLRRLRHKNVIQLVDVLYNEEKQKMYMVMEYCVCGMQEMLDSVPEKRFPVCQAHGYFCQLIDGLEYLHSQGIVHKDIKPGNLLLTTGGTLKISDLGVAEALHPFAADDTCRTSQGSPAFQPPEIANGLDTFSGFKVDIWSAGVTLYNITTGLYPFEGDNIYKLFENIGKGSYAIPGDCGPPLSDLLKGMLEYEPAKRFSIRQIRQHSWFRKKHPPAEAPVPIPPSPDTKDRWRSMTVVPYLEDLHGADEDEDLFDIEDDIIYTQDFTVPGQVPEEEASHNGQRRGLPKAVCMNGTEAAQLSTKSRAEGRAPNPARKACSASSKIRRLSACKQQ
LKB1, sequence (Q7RTN6 whole entry partner): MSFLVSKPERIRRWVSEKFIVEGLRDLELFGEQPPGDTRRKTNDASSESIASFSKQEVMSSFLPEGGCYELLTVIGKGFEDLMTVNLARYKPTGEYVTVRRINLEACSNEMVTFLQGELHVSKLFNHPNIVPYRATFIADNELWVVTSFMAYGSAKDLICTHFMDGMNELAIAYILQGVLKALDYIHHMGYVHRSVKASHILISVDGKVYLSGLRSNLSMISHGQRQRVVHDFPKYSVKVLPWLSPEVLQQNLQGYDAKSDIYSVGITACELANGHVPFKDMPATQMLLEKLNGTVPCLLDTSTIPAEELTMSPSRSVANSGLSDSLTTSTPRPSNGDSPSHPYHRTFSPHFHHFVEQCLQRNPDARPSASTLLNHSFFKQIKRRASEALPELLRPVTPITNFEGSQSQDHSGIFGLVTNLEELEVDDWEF
LKB1, sequence (Q9Y376 whole entry partner): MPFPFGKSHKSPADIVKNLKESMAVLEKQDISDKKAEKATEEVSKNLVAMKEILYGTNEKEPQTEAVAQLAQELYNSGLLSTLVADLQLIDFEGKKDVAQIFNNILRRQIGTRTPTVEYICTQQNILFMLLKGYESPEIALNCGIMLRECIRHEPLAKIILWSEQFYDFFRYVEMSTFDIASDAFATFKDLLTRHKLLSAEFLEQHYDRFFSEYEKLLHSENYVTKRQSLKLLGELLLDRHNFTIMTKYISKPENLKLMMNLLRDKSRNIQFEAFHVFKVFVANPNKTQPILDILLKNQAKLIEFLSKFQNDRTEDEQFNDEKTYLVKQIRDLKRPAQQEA
Procedure, shortened: as §1

[18] = target: T1, MARK3 (Homo sapiens, UniProt P27448)
T1 construct: purchased MRC PPU
Procedure, shortened: as §1

[19] = target: MEKK1 (Homo sapiens, UniProt Q13233)
Procedure, shortened: as §1

[20] = target: MKK6 (Homo sapiens, UniProt P52564)
Procedure, shortened: as §1

[21] = target: MLK1 (Homo sapiens, UniProt P80192)
Procedure, shortened: as §1

[22] = target: NEK2a (Homo sapiens, UniProt P51955)
NEK2a, sequence (P51955 whole entry): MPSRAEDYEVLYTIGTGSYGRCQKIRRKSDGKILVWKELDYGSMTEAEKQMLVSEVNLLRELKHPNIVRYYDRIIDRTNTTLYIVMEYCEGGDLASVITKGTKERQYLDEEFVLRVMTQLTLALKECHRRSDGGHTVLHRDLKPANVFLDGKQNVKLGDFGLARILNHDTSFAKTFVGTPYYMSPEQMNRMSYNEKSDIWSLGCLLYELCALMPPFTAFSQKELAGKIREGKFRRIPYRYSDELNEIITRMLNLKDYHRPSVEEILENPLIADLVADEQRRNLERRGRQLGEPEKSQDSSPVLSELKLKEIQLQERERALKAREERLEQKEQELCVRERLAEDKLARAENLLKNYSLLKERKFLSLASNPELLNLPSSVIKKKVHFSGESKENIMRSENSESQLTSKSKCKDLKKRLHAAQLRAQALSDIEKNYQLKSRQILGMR
Procedure, shortened: as §1

[23] = target: PAK5 (Homo sapiens, UniProt Q9P286)
Procedure, shortened: as §1

[24] = target: PAK6 (Homo sapiens, UniProt Q9NQU5)
Procedure, shortened: as §1

[25] = target: PDGFRA (Homo sapiens, UniProt P16234)
Procedure, shortened: as §1

[26] = target: PIM2 (Homo sapiens, UniProt Q9P1W9)
PIM2, sequence (Q9P1W9 whole entry): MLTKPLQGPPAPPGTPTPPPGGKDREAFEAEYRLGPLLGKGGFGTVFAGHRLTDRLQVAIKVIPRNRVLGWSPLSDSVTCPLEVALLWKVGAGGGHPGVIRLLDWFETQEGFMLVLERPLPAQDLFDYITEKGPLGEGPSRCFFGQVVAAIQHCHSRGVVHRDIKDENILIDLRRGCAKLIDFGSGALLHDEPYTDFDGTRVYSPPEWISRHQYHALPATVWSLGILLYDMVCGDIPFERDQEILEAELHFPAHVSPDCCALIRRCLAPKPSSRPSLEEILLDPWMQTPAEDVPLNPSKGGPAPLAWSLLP
Procedure, shortened: as §1

[27] = target: PIM3 (Homo sapiens, UniProt Q86V86)
Procedure, shortened: as §1

[28] = target: ROCK 2 (Homo sapiens, UniProt O75116)
Procedure, shortened: as §1

[29] = target: SRPK1 (Homo sapiens, UniProt Q96SB4)
Procedure, shortened: as §1

[30] = target: SmMLCK (Homo sapiens, UniProt Q15746)
SmMLCK, sequence (Q15746 923-1914): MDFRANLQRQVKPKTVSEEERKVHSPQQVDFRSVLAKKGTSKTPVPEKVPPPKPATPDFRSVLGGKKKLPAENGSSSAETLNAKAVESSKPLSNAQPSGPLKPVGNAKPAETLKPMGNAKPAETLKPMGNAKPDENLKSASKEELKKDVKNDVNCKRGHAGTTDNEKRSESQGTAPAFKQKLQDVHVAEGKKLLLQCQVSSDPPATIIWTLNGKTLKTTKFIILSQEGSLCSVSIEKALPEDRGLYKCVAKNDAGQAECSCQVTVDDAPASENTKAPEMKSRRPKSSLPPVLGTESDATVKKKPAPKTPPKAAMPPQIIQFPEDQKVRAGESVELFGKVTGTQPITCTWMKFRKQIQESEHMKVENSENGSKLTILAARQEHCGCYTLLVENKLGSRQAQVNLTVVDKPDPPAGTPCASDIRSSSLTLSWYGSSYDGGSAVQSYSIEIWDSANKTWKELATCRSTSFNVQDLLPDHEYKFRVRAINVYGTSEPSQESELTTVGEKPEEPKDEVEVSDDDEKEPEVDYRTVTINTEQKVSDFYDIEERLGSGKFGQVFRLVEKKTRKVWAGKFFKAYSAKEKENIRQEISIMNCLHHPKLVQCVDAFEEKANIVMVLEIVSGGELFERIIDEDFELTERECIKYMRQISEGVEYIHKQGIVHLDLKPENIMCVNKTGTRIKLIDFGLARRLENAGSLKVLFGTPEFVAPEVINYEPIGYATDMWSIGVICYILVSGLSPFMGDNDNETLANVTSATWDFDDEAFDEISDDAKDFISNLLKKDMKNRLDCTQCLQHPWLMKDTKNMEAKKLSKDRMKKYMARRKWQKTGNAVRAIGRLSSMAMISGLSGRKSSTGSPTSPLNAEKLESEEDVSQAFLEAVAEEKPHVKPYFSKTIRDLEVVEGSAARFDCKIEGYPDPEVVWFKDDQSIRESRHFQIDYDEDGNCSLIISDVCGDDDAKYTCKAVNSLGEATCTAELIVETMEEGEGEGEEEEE
Procedure, shortened: as §1

[31] = target: TGFBR1 (Homo sapiens, UniProt P36897)
Procedure, shortened: as §1

[32] = target: TTBK1 (Homo sapiens, UniProt Q5TCY1)
TTBK1, sequence (Q5TCY1 whole entry): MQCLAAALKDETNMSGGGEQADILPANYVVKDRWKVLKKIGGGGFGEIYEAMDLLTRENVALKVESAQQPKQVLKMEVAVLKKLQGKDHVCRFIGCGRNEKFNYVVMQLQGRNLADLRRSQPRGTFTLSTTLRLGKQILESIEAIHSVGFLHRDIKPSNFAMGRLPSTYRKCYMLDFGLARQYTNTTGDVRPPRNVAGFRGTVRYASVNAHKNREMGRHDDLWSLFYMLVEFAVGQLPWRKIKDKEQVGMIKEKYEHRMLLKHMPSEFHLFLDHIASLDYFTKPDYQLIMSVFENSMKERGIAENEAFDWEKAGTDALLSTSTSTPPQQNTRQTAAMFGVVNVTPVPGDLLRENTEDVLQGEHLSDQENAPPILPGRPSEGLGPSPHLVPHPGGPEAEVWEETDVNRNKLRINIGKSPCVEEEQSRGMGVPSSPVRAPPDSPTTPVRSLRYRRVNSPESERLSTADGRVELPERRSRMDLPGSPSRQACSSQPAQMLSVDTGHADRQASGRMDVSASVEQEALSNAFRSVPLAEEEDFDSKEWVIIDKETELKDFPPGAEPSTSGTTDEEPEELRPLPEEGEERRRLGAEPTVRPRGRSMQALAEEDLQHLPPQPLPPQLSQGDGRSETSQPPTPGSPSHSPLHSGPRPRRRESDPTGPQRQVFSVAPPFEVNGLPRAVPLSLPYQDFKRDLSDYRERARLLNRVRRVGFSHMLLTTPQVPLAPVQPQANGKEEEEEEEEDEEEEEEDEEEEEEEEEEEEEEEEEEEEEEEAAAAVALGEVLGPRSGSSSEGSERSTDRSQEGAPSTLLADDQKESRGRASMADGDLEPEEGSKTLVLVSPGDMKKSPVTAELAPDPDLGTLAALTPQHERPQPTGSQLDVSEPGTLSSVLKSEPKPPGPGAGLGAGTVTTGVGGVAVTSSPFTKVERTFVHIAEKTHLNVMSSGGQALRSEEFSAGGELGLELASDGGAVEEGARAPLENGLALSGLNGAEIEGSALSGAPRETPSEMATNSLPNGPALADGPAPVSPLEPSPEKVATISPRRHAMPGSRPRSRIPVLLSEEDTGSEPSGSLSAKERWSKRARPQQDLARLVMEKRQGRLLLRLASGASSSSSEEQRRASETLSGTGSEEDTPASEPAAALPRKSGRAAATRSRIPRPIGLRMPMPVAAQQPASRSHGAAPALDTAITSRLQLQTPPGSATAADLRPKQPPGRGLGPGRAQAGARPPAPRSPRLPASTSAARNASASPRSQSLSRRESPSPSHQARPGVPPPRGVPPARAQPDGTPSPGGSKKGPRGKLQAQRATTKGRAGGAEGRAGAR
Procedure, shortened: as §1

[33] = target: TTBK2 (Homo sapiens, UniProt Q6IQ55)
Procedure, shortened: as §1

[34] = target: p38a MAPK (Homo sapiens, UniProt Q16539)
p38a MAPK, sequence (Q16539 whole entry): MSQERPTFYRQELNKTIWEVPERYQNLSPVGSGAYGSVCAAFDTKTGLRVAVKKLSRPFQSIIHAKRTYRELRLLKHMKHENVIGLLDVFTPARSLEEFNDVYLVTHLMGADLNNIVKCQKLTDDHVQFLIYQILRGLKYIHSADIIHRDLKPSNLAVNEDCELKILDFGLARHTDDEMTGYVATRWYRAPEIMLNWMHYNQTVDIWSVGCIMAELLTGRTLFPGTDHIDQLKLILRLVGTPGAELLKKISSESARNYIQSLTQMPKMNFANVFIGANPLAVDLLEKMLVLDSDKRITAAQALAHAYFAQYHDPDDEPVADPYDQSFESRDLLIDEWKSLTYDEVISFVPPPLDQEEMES
Procedure, shortened: as §1

[35] = target: p38d MAPK (Homo sapiens, UniProt O15264)
Procedure, shortened: as §1

Structure (SMILES) | % activity remaining [1] | % activity remaining [2] | % activity remaining [3] | % activity remaining [4] | % activity remaining [5] | % activity remaining [6] | % activity remaining [7] | % activity remaining [8] | % activity remaining [9] | % activity remaining [10] | % activity remaining [11] | % activity remaining [12] | % activity remaining [13] | % activity remaining [14] | % activity remaining [15] | % activity remaining [16] | % activity remaining [17] | % activity remaining [18] | % activity remaining [19] | % activity remaining [20] | other results
Cc1cc(=O)n(C2CCCC2)c2nc(Nc3ccc(N4CC5CC(C4)N5C)cc3)ncc12 [Compound 9] | 97% | 81% | 59% | 67% | 72% | 34% | 108% | 104% | 60% | 77% | 60% | 93% | 80% | 118% | 54% | 30% | 104% | 35% | 85% | 84% | % activity remaining [21]: 21%; % activity remaining [22]: 36%; % activity remaining [23]: 64%; % activity remaining [24]: 78%; % activity remaining [25]: 57%; % activity remaining [26]: 99%; % activity remaining [27]: 80%; % activity remaining [28]: 56%; % activity remaining [29]: 111%; % activity remaining [30]: 61%; % activity remaining [31]: 92%; % activity remaining [32]: 92%; % activity remaining [33]: 97%; % activity remaining [34]: 92%; % activity remaining [35]: 94%
CN1C2CC1CN(c1ccc(Nc3ncc4ccn(CC5CCOCC5)c4n3)cc1)C2 [Compound 24] | 99% | 75% | 79% | 56% | 98% | 107% | 96% | 97% | 125% | 76% | 82% | 114% | 102% | 74% | 85% | 107% | 100% | 104% | 63% | 88% | % activity remaining [21]: 33%; % activity remaining [22]: 77%; % activity remaining [23]: 99%; % activity remaining [24]: 118%; % activity remaining [25]: 90%; % activity remaining [26]: 111%; % activity remaining [27]: 56%; % activity remaining [28]: 78%; % activity remaining [29]: 79%; % activity remaining [30]: 102%; % activity remaining [31]: 75%; % activity remaining [32]: 103%; % activity remaining [33]: 96%; % activity remaining [34]: 93%; % activity remaining [35]: 110%
